Experiment: Pharmacokinetic properties in SD rats after intramuscular injection
Conditions: male SD rats, i.m., 90 mg/kg (based on donepezil), oil solvent, plasma, LC/MS/MS
Description: Pharmacokinetic Properties of Compounds of the Present Invention Administered to Rats
In the present embodiment, male SD rats (SPF grade), aged […] and weighing 180 to 220 g, were purchased from Shanghai Slack laboratory Animal Co., Ltd. Throughout the process of the experiment, give the rats free access to food and water.
Adopting grouping of random grouping design, the SD rats for experiments were grouped according to gender and body weight.
The whole blood was collected and placed on ice, followed by centrifugation at 4° C., 8000 rpm and 5 min to collect plasma The plasma was transferred to a 96-well plate and stored at −20° C. until LC-MS/MS examination. Drug concentrations in EDTA (4 mM) anticoagulated plasma of SD rats were determined using LC/MS/MS (Agilent6460). Using WinNonlin 5.2 software, calculate respective relevant pharmacokinetic parameters of each group at each time point after administration according to statistical moment theory.
t1/2 was calculated by the formula t1/2=0.693/λz; λz is an end elimination rate constant derived from the logarithmic concentration—the straight part of the end of time curve, which can be derived from the slope of the logarithmic concentration—the straight part of the end of time curve.

SMILES: CCCCCCC(=O)OC1=C(CC2CCN(Cc3ccccc3)CC2)Cc2cc(OC)c(OC)cc21 [Compound 3, Donepezil Heptanoate]
- Cmax (measured value): 44.11 ng/mL
- Tmax (measured value): 18.00 h
- T1/2 (t1/2=0.693/λz): 314.18 h
